pIC50: −log10 of the molar value. Read-outs that look alike come from different tables or passages of the source.
Experiments:
Fyn kinase = format: cell-based, mouse
[1] = tested on: primary hippocampal neurons; format: cell-based, mouse
[2] = mouse, in vivo
[3] = target: T1, full-length human recombinant PrPC (Homo sapiens, UniProt P04156); conditions: cited from earlier work
[4] = tested on: HEK293 cells expressing ΔCR PrP; assay: cells; format: cell-based; design: Emax: dose or concentration left out as unconfirmed; conditions: for Emax / Emax at 1 µM: HEK293, 48 h, read-out: % RMAX: maximum rescuing effect, expressed as percentage of the effect of SM3(LD24) at the same concentration; for pIC50: HEK293, read-out: IC50 (rescuing dose at 50%)
naive HEK293 cells = assay: Intrinsic toxicity in naive HEK293 cells (MTT); format: cell-based; conditions: 8-point dose-response curve, 48 h
Description: FIG. 3. Dose-response analysis of selected compounds. (A) Chemical structures of the selected molecules are shown in panel. (B) A dose-response analysis using the DBCA was employed to evaluate the anti-ΔCR PrP effects of the different molecules. The graphs show a quantification of the dose-dependent, rescuing effect of each molecule. Average values were obtained from a minimum of 3 independent experiments (n≥3), and expressed as a percentage of cell viability in untreated cells. Data were fitted to a sigmoidal function using a 4-parameter logistic (4PL) non-linear regression model, allowing the estimation of the half-maximal inhibitory concentration (IC50). (C) The intrinsic toxicity of each compound was evaluated in naive HEK293 cells, exposed to each molecule/concentration for 48 h at 37° C. Cytotoxicity was evaluated by MTT. Average values were obtained from a minimum of 3 independent experiments (n≥3), and expressed as a percentage of cell viability in untreated cells. Data were fitted to an inverse sigmoidal function using a 4PL non-linear regression model, allowing the estimation of the half-maximal toxicity dose (LD50).
The DBCA was performed as described previously^24, with minor modifications. Briefly, HEK293 cells expressing ΔCR PrP were cultured at ˜60% confluence in 24-well plates on day 1. On day 2, cells were treated with 500 μg/mL of Zeocinfor. Medium (containing fresh Zeocin and/or compound or vehicle) was replaced every 24 hr. On day 5, cell medium was removed and cells were incubated with 1 mg/mL of 3-(4,5-dimethylthiazol-2-yl)-2,5-diphenyltetrazolium bromide (MTT, Sigma Aldrich, St. Louis, MO) in PBS for 30 min at 37° C. MTT was carefully removed, and cells were re-suspended in 500 μL of DMSO. Values for each well were obtained by measuring at 570 nm, using a plate spectrophotometer (Biotek).

M1000 prion strain = tested on: M1000 prion strain; design: species or system mouse; conditions: slices treated with M1000 prion lysate
cDC2 = format: cell-based, mouse
[5] = target: T1, full-length human recombinant PrPC; format: binding; conditions: 0.1-1000 μM, highest concentration 1 mM
PrPC [6] = conditions: HEK293 WT PrPC, 48 hours
PrPC [7] = format: cell-based, mouse; conditions: especially in DC2
DC2 = format: cell-based, mouse
FXR = format: cell-based, mouse
in vitro = conditions: rat, microsomes

Row | Compound | Emax [4] | pIC50 [4] | LD50 (lethal dose at 50%) (naive HEK293 cells) | further results
1 | Fe(III)-TMPyP [reference compound] | – | – | – | effect on Aβ-induced Fyn phosphorylation (Fyn kinase): prevented; effect on Aβ-induced decrease of post-synaptic markers (GluN2A, GluN2B, GluA1, GluA2, PSD-95) [1]: rescued; EAE clinical score / disease severity [2]: ameliorate EAE severity; affinity for PrPC, previously reported [3]: high
2 | O=C(CN1c2ccc(C(F)(F)F)cc2-c2ccc(F)cc2S1(=O)=O)NC1CCCCC1 [SM882, N-cyclohexyl-2-(3-fluoro-5,5-dioxido-9-(trifluoromethyl)-6H-dibenzo[c,e][1,2]thiazin-6-yl)acetamide] | 139% | 7.36 | >100 µM | –
3 | CCC(CC)NC(=O)CN1c2ccc(C(F)(F)F)cc2-c2ccc(F)cc2S1(=O)=O [SM884, N-(1-Ethylpropyl)-2-[3-fluoro-5,5-dioxido-9-(trifluoromethyl)-6H-dibenzo[c,e][1,2]thiazin-6-yl]acetamide] | 211% | 7.74 | >100 µM | rescue of long-term potentiation (LTP) (M1000 prion strain; 0.03 μM): 71%; rescue of long-term potentiation (LTP) (M1000 prion strain; 0.1 μM): 34%
4 | O=C(CN1c2ccc(C(F)(F)F)cc2-c2ccc(F)cc2S1(=O)=O)NC1CCOCC1 [SM885, 2-[3-Fluoro-5,5-dioxido-9-(trifluoromethyl)-6H-dibenzo[c,e][1,2]thiazin-6-yl]-N-(tetrahydro-2H-pyran-4-yl)acetamide] | 123% | 7.28 | >100 µM | –
5 | O=C(CN1c2ccc(Br)cc2-c2ccccc2S1(=O)=O)NC1CCCCC1 [SM3, 2-(9-Bromo-5,5-dioxido-6H-dibenzo[c,e][1,2]thiazin-6-yl)-N-cyclohexylacetamide, reference compound] | 100% | 5.96 | >100 µM | –
6 | O=C(CN1c2cc(Br)ccc2-c2ccccc2S1(=O)=O)NC1CCCCC1 [SM228, 2-(8-Bromo-5,5-dioxido-6H-dibenzo[c,e][1,2]thiazin-6-yl)-N-cyclohexylacetamide] | 123% | 6.68 | 37.46 µM | –
7 | O=C(CN1c2ccc(C(F)(F)F)cc2-c2ccccc2S1(=O)=O)NC(CCO)CCO [SM887, 2-[5,5-dioxido-9-(trifluoromethyl)-6H-dibenzo[c,e][1,2]thiazin-6-yl]-N-[3-hydroxy-1-(2-hydroxyethyl)propyl]acetamide] | – | – | – | Emax at 1 µM [4]: ~50%; antigen-specific CD4+ T cell proliferation after cDC2 treatment (cDC2): significantly affected
8 | O=C(CN1c2ccc(C(F)(F)F)cc2-c2ccc(F)cc2S1(=O)=O)NN1CCOCC1 [SM881, 2-[3-Fluoro-5,5-dioxido-9-(trifluoromethyl)-6H-dibenzo[c,e][1,2]thiazin-6-yl]-N-morpholin-4-ylacetamide] | 150% | 7.49 | >100 µM | –
9 | O=C(CN1c2ccc(C(F)(F)F)cc2-c2ccccc2S1(=O)=O)NC1CCCCC1 [SM231, N-cyclohexyl-2-[5,5-dioxido-9-(trifluoromethyl)-6H-dibenzo[c,e][1,2]thiazin-6-yl]acetamide] | 140% | 6.85 | 22.4 µM | effect on Aβ-induced Fyn phosphorylation (Fyn kinase): completely abrogated Aβ effects; effect on Aβ-induced decrease of post-synaptic markers (GluN2A, GluN2B, GluA1, GluA2, PSD-95) [1]: significantly rescued the levels of all the post-synaptic markers; binding to recombinant PrPC by DMR [5]: no interaction was observed; total PrPC expression (PrPC [6]): no difference in PrPC expression was found; PrPC level in DC1 and DC2 (PrPC [7]): slightly increases; expansion of FoxP3+ LAP+ Treg cells by treated DC2 (DC2): favor the expansion of T cells expressing Treg cell markers FoxP3 and LAP; EAE clinical score / disease severity [2]: reduced disease as compared to control mice; secretion of IL-17A and GM-CSF by CD4+ T cells from cervical lymph nodes re-stimulated with MOG [2]: reduced secretion of inflammatory cytokines; white matter demyelination and inflammatory infiltrates [2]: reduced; FXR transcriptional activity (FXR, Nr0b2 mRNA) (FXR): promoted significant FXR transcriptional activity; half-life (in vitro): 25 min
10 | O=C(CN1c2cccc(Br)c2-c2ccccc2S1(=O)=O)NC1CCCCC1 [SM229, 2-(10-bromo-5,5-dioxido-6H-dibenzo[c,e][1,2]thiazin-6-yl)-N-cyclohexylacetamide] | 121% | 6.60 | 28.21 µM | –
11 | CCOc1ccc2c(c1)S(=O)(=O)N(CC(=O)NC1CCCCC1)c1ccc(C(F)(F)F)cc1-2 [SM883, N-cyclohexyl-2-(3-ethoxy-5,5-dioxido-9-(trifluoromethyl)-6H-dibenzo[c,e][1,2]thiazin-6-yl)acetamide] | 166% | 7.85 | >100 µM | –
12 | CCC(CN(C)C)NC(=O)CN1c2ccc(C(F)(F)F)cc2-c2ccc(F)cc2S1(=O)=O (stereo not drawn) [SM889, N-{1-[(dimethylamino)methyl]propyl}-2-[3-fluoro-5,5-dioxido-9-(trifluoromethyl)-6H-dibenzo[c,e][1,2]thiazin-6-yl]acetamide] | – | – | – | Emax at 1 µM [4]: ~50%; antigen-specific CD4+ T cell proliferation after cDC2 treatment (cDC2): suppress antigen-specific CD4+ T cell proliferation
13 | O=C(CN1c2ccc(C(F)(F)F)cc2-c2ccc(F)cc2S1(=O)=O)NC(CCO)CCO [SM888, 2-[3-Fluoro-5,5-dioxido-9-(trifluoromethyl)-6H-dibenzo[c,e][1,2]thiazin-6-yl]-N-[3-hydroxy-1-(2-hydroxyethyl)propyl]acetamide] | – | – | – | Emax at 1 µM [4]: ~50%; antigen-specific CD4+ T cell proliferation after cDC2 treatment (cDC2): suppress antigen-specific CD4+ T cell proliferation
14 | COCCNC(=O)CN1c2ccc(Br)cc2-c2ccccc2S1(=O)=O [SM170] | – | – | – | Emax at 1 µM [4]: 36.9%

— patent US20240376092A1 (priority 2021, published 2024)
